Measurements: patent publication US8288548B2, “Oxazolo[5-4-b]pyridin-5-yl compounds” (Eli Lilly and Company, priority 2010, dated 2012)
Marks after values point to notes of the source that are not given here.

How the values were obtained:
[1] = tested on: 786-O human renal cell carcinoma cells; assay: 786-O xenograft model in combination with sunitinib; type: in vivo, athymic nude mice; conditions: BID x 28
Method: Female athymic nude mice are obtained from Harlan Labs at a weight of 24-26 g. […] Tumor size is monitored by caliper measurement twice per week. […] The compound is dosed orally in a 0.2 mL volume of 1% HEC, 0.25% TWEEN® 80, 0.05% antifoam (HEC/TWEEN®). […] Tumor volume is monitored twice per week and efficacy (tumor growth inhibition) is compared relative to vehicle-treated control animals. […] Statistical assessment of synergy was performed using two-way repeated measures analysis of variance on log tumor volume vs. time.

[2] = tested on: A2780 human ovarian carcinoma cells; assay: A2780 xenograft model, tumor growth inhibition; type: in vivo, CD1 nu/nu mice; conditions: 4 day on, 3 d off
Method: (§1) Female CD1 nu/nu mice are obtained from Charles River Laboratories at approximately 22-25 g. After 1 week acclimation, 2×10^6 A2780 human ovarian carcinoma cells are injected subcutaneously in the rear flank of each mouse in a 0.2 mL volume in a 1:1 mixture of cell culture media and BD […]™ matrix. Tumor size is monitored by caliper measurement twice per week. When the average tumor size reaches 150 mm^3, animals are randomized into groups of 10. p38 MAP kinase inhibitor treatment is initiated after randomization. Example 2 is dosed orally in a 0.2 mL volume of 1% HEC, 0.25% TWEEN® 80, 0.05% antifoam (HEC/TWEEN®). The compound is dosed at doses of 1, 3, and 10 mg/kg. Dosing is performed three times per day (TID) on a schedule of 4 days on, 3 days off. Three cycles of dosing is performed. Tumor volume is monitored twice per week during the dosing period, and efficacy (tumor growth inhibition) is monitored relative to a vehicle control group (n=10 animals). At 1, 2 and 8 hours after the last p38 MAP kinase inhibitor dose, plasma is obtained from animals to determine the circulating levels of compound in the animals.

[3] = Plasma concentration after last dose in the A2780 xenograft model; type: in vivo, CD1 nu/nu mice
Method: as §1

OPM-2 cells = assay: OPM-2 multiple myeloma xenograft model; type: in vivo, CB-17 SCID mice; conditions: PO, BID
Method: Female CB-17 SCID mice are obtained from Taconic at 20-22 g weight. After acclimating for one week, mice are irradiated with a dose of 2.5 Gray. Within 24 hours following irradiation, mice are injected sub-cutaneously in the rear flank with 1.0×10^7 OPM-2 cells in a 0.2 mL volume in a 1:1 mixture of cell culture media and BD […]™ matrix. Tumor size is monitored by caliper measurement twice per week. When the tumor size reaches 100-150 mm^3, animals are randomized into dose groups. Compound treatment is initiated after randomization. Example 2 is dosed orally in a 0.2 mL volume of 1% HEC, 0.25% TWEEN® 80, 0.05% antifoam (HEC/TWEEN®). The compound is dosed at doses of 15 and 30 mg/kg. Dosing is performed two times per day (BID) for 28 days of treatment. Tumor volume is monitored twice per week during the dosing period, and efficacy (tumor growth inhibition) is monitored relative to a vehicle control group (n=10 animals).

For CCN(CC)CCNC(=O)c1c(C)[nH]c(/C=C2\C(=O)Nc3ccc(F)cc32)c1C [Sunitinib], which “% Tumor Growth Inhibition” value ([1]; Sunitinib 10 mg/kg PO, Day 17) is on record?
Its value is −1.6%.

And the “% Tumor Growth Inhibition” value ([1]; Sunitinib 10 mg/kg PO, Day 21)?
The value was 2.9%.

What about the “% Tumor Growth Inhibition” value ([1]; Sunitinib 10 mg/kg PO, Day 24) of the same compound?
Its value is −16.3%.

What about the “% Tumor Growth Inhibition” value ([1]; Sunitinib 10 mg/kg PO, Day 28) of the same compound?
The value was −21.2%.

What about the “% Tumor Growth Inhibition” value ([1]; Sunitinib 20 mg/kg PO, Day 17) of the same compound?
Its value is −55.9%.

And the “% Tumor Growth Inhibition” value ([1]; Sunitinib 20 mg/kg PO, Day 21)?
The value was 31.5%.

And the “% Tumor Growth Inhibition” value ([1]; Sunitinib 20 mg/kg PO, Day 24)?
The value was 18%.

And the “% Tumor Growth Inhibition” value ([1]; Sunitinib 20 mg/kg PO, Day 28)?
Its value is 34.5%.

And the “% Tumor Growth Inhibition” value ([1]; Sunitinib 20 mg/kg PO, Day 31)?
The value was 35.4* %.

With “2-[5-(2,4-Difluorophenyl)-4-[2-[[(1S)-3-methoxy-1-methyl-propyl]amino]oxazolo[5,4-b]pyridin-5-yl]-1H-imidazol-2-yl]-2-methyl-propan-1-ol, methanesulfonate [Example 2]” as the compound, how does the “Tumor Growth Inhibition (%)” value ([2]; 1 mg/kg PO TID, Day 20) read?
The value was 70.6%.

And the “Tumor Growth Inhibition (%)” value ([2]; 1 mg/kg PO TID, Day 23)?
The value was 76.6%.

What about the “Tumor Growth Inhibition (%)” value ([2]; 1 mg/kg PO TID, Day 26) of the same compound?
Its value is 76%.

What about the “Tumor Growth Inhibition (%)” value ([2]; 1 mg/kg PO TID, Day 29 (final)) of the same compound?
The value was 78.3%.

What about the “Tumor Growth Inhibition (%)” value ([2]; 3 mg/kg PO TID, Day 20) of the same compound?
The value was 32.5%.

And the “Tumor Growth Inhibition (%)” value ([2]; 3 mg/kg PO TID, Day 23)?
Its value is 47.7%.

And the “Tumor Growth Inhibition (%)” value ([2]; 3 mg/kg PO TID, Day 26)?
The value was 42.7%.

And the “Tumor Growth Inhibition (%)” value ([2]; 3 mg/kg PO TID, Day 29 (final))?
The value was 37.7%.

What about the “Tumor Growth Inhibition (%)” value ([2]; 10 mg/kg PO TID, Day 20) of the same compound?
Its value is 60%.

What about the “Tumor Growth Inhibition (%)” value ([2]; 10 mg/kg PO TID, Day 23) of the same compound?
The value was 71.2%.

What about the “Tumor Growth Inhibition (%)” value ([2]; 10 mg/kg PO TID, Day 26) of the same compound?
The value was 72.8%.

What about the “Tumor Growth Inhibition (%)” value ([2]; 10 mg/kg PO TID, Day 29 (final)) of the same compound?
Its value is 74.8%.

And the “Mean Plasma Concentration (μM) at time (hour) post-last dose” value (“Mean Plasma Concentration (μM) at time” below) ([3]; 1 mg/kg PO TID, 1 hour post-last dose)?
Its value is 0.0263 µM.

And the “Mean Plasma Concentration (μM) at time” value ([3]; 1 mg/kg PO TID, 2 hour post-last dose)?
Its value is 0.0146 µM.

And the “Mean Plasma Concentration (μM) at time” value ([3]; 3 mg/kg PO TID, 1 hour post-last dose)?
The value was 0.0526 µM.

What about the “Mean Plasma Concentration (μM) at time” value ([3]; 3 mg/kg PO TID, 2 hour post-last dose) of the same compound?
Its value is 0.0604 µM.

What about the “Mean Plasma Concentration (μM) at time” value ([3]; 3 mg/kg PO TID, 3 hour post-last dose) of the same compound?
The value was 0.0042 µM.

What about the “Mean Plasma Concentration (μM) at time” value ([3]; 10 mg/kg PO TID, 1 hour post-last dose) of the same compound?
The value was 0.4952 µM.

What about the “Mean Plasma Concentration (μM) at time” value ([3]; 10 mg/kg PO TID, 2 hour post-last dose) of the same compound?
The value was 0.3978 µM.

What about the “Mean Plasma Concentration (μM) at time” value ([3]; 10 mg/kg PO TID, 3 hour post-last dose) of the same compound?
The value was 0.0243 µM.

And the “Mean tumor size (mm3)” value (OPM-2 cells; 15 mpk, Day 4)?
Its value is 101.69 mm3.

And the “Mean tumor size (mm3)” value (OPM-2 cells; 15 mpk, Day 8)?
Its value is 87.96 mm3.

And the “Mean tumor size (mm3)” value (OPM-2 cells; 15 mpk, Day 11)?
Its value is 104.9 mm3.

What about the “Mean tumor size (mm3)” value (OPM-2 cells; 15 mpk, Day 15) of the same compound?
Its value is 104.21 mm3.

What about the “Mean tumor size (mm3)” value (OPM-2 cells; 15 mpk, Day 18) of the same compound?
The value was 120.17 mm3.

And the “Mean tumor size (mm3)” value (OPM-2 cells; 15 mpk, Day 21)?
The value was 182.47 mm3.

And the “Mean tumor size (mm3)” value (OPM-2 cells; 15 mpk, Day 25)?
Its value is 169.53 mm3.

What about the “Mean tumor size (mm3)” value (OPM-2 cells; 15 mpk, Day 29) of the same compound?
The value was 214.28 mm3.

What about the “Mean tumor size (mm3)” value (OPM-2 cells; 15 mpk, Day 33) of the same compound?
Its value is 326.29 mm3.

What about the “Mean tumor size (mm3)” value (OPM-2 cells; 15 mpk, Day 36) of the same compound?
Its value is 384.59 mm3.

And the “Mean tumor size (mm3)” value (OPM-2 cells; 15 mpk, Day 43)?
The value was 628.46 mm3.

What about the “Mean tumor size (mm3)” value (OPM-2 cells; 15 mpk, Day 46) of the same compound?
The value was 700.62 mm3.

And the “Mean tumor size (mm3)” value (OPM-2 cells; 15 mpk, Day 49)?
The value was 937.29 mm3.

And the “Mean tumor size (mm3)” value (OPM-2 cells; 15 mpk, Day 53)?
Its value is 1138.19 mm3.

And the “Mean tumor size (mm3)” value (OPM-2 cells; 30 mpk, Day 4)?
The value was 97.8 mm3.

What about the “Mean tumor size (mm3)” value (OPM-2 cells; 30 mpk, Day 8) of the same compound?
The value was 90.78 mm3.

And the “Mean tumor size (mm3)” value (OPM-2 cells; 30 mpk, Day 11)?
The value was 118.46 mm3.

And the “Mean tumor size (mm3)” value (OPM-2 cells; 30 mpk, Day 15)?
The value was 95.34 mm3.

And the “Mean tumor size (mm3)” value (OPM-2 cells; 30 mpk, Day 18)?
Its value is 103.71 mm3.

What about the “Mean tumor size (mm3)” value (OPM-2 cells; 30 mpk, Day 21) of the same compound?
Its value is 115.16 mm3.

What about the “Mean tumor size (mm3)” value (OPM-2 cells; 30 mpk, Day 25) of the same compound?
The value was 155.27 mm3.

And the “Mean tumor size (mm3)” value (OPM-2 cells; 30 mpk, Day 29)?
The value was 154.83 mm3.

What about the “Mean tumor size (mm3)” value (OPM-2 cells; 30 mpk, Day 33) of the same compound?
The value was 224.14 mm3.

What about the “Mean tumor size (mm3)” value (OPM-2 cells; 30 mpk, Day 36) of the same compound?
The value was 243.32 mm3.

And the “Mean tumor size (mm3)” value (OPM-2 cells; 30 mpk, Day 43)?
Its value is 407.07 mm3.

What about the “Mean tumor size (mm3)” value (OPM-2 cells; 30 mpk, Day 46) of the same compound?
The value was 527.14 mm3.

And the “Mean tumor size (mm3)” value (OPM-2 cells; 30 mpk, Day 49)?
Its value is 642.22 mm3.

And the “Mean tumor size (mm3)” value (OPM-2 cells; 30 mpk, Day 53)?
Its value is 812.48 mm3.

With COCC[C@H](C)Nc1nc2ccc(-c3nc(C(C)(C)CO)[nH]c3-c3ccc(F)cc3F)nc2o1.Cl [Example 3, 2-[5-(2,4-Difluorophenyl)-4-[2-[[(1S)-3-methoxy-1-methyl-propyl]amino]oxazolo[5,4-b]pyridin-5-yl]-1H-imidazol-2-yl]-2-methyl-propan-1-ol, hydrochloride] as the compound, how does the “% Tumor Growth Inhibition” value ([1]; Example 3 15 mg/kg PO, Day 17) read?
Its value is −35.5%.

And the “% Tumor Growth Inhibition” value ([1]; Example 3 15 mg/kg PO, Day 21)?
Its value is −23%.

What about the “% Tumor Growth Inhibition” value ([1]; Example 3 15 mg/kg PO, Day 24) of the same compound?
Its value is −52.4%.

What about the “% Tumor Growth Inhibition” value ([1]; Example 3 15 mg/kg PO, Day 28) of the same compound?
The value was −74.1* %.

And the “% Tumor Growth Inhibition” value ([1]; Example 3 15 mg/kg PO, Day 31)?
The value was −58.8* %.
